Values joined by “and” are separate entries in the source; they are usually repeats but may differ in a detail not shown here. Identical values can stand only once.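 Briefly, cells in 96-well plates were exposed to five compound concentrations for 48 h, and endpoints were estimated by linear interpolation. GI50: concentration for 50% inhibition of growth. TGI is the concentration that stops growth completely.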
Tests used:
Assay in all cases: DTP human tumour cell line panel, 48 h
U251 CNS = tested on: U251 CNS
SNB-75 CNS = tested on: SNB-75 CNS
SK-MEL-2 melanoma = tested on: SK-MEL-2 melanoma
SK-MEL-28 melanoma = tested on: SK-MEL-28 melanoma
HL-60(TB) leukemia = tested on: HL-60(TB) leukemia
SR leukemia = tested on: SR leukemia
OVCAR-3 ovarian = tested on: OVCAR-3 ovarian
SNB-19 CNS = tested on: SNB-19 CNS
NCI-H23 lung = tested on: NCI-H23 lung
T-47D breast = tested on: T-47D breast

COC1=CC(=O)OC(/C=C(C)/C=C/C2=C(C)CCCC2(C)C)C1 (stereo not given)
TGI (U251 CNS): > 100 µM
TGI (SNB-75 CNS): > 100 µM
TGI (SK-MEL-2 melanoma): > 100 µM
TGI (SK-MEL-28 melanoma): > 100 µM
TGI (HL-60(TB) leukemia): > 100 µM
TGI (SR leukemia): > 100 µM
TGI (OVCAR-3 ovarian): > 100 µM
TGI (SNB-19 CNS): > 100 µM
TGI (NCI-H23 lung): > 100 µM

CCc1nc2ccccc2c(=O)n1/N=C(\N=Nc1ccc(Cl)cc1)c1ccccc1
TGI (U251 CNS): > 87.8 µM
TGI (SNB-75 CNS): 40.1 µM
TGI (SK-MEL-2 melanoma): 82.5 µM
TGI (SK-MEL-28 melanoma): > 100 µM
TGI (HL-60(TB) leukemia): > 100 µM
TGI (OVCAR-3 ovarian): 57.1 µM
TGI (SNB-19 CNS): 82.6 µM
TGI (NCI-H23 lung): > 100 µM

Cc1ccc(NC(=O)/C(=N\NC(N)=S)C(C#N)c2ccccc2C)cc1C (stereo not given)
TGI (U251 CNS): > 100 µM
TGI (SNB-75 CNS): > 100 µM
TGI (SK-MEL-2 melanoma): > 100 µM
TGI (SK-MEL-28 melanoma): > 100 µM
TGI (HL-60(TB) leukemia): > 100 µM
TGI (SR leukemia): > 100 µM
TGI (OVCAR-3 ovarian): > 100 µM
TGI (SNB-19 CNS): > 100 µM
TGI (NCI-H23 lung): > 100 µM

O=C1C(=C([O-])c2ccccc2)C(=O)c2ccccc21.O=C1C(=C([O-])c2ccccc2)C(=O)c2ccccc21.[Co+2]
GI50 (U251 CNS): > 100 µM
TGI (U251 CNS): > 100 µM
GI50 (SNB-75 CNS): > 100 µM
TGI (SNB-75 CNS): > 100 µM
GI50 (SK-MEL-28 melanoma): > 100 µM
TGI (SK-MEL-28 melanoma): > 100 µM
GI50 (OVCAR-3 ovarian): 75.1 µM
TGI (OVCAR-3 ovarian): > 100 µM
GI50 (SNB-19 CNS): > 100 µM
TGI (SNB-19 CNS): > 100 µM
GI50 (NCI-H23 lung): > 100 µM
TGI (NCI-H23 lung): > 100 µM

O=[N+]([O-])/C=C/c1cc2ccc3ccccc3c2[nH]1
TGI (U251 CNS): 2.95 µM
TGI (SNB-75 CNS): 3.87 µM
TGI (SK-MEL-2 melanoma): 2.39 µM
TGI (T-47D breast): 3.89 µM
TGI (SK-MEL-28 melanoma): 4.79 µM
TGI (HL-60(TB) leukemia): 5.29 µM
TGI (OVCAR-3 ovarian): 3.11 µM
TGI (SNB-19 CNS): 7.79 µM
TGI (NCI-H23 lung): 5.07 µM

O=C(O)c1ccc(C(=O)O)c(C(=O)O)c1.[NH-]C1CCCCC1[NH-].[Pt+2]
GI50 (U251 CNS): 8.84 µM
TGI (U251 CNS): 59.1 µM
GI50 (SNB-75 CNS): 18 µM
TGI (SNB-75 CNS): 78.9 µM
GI50 (SK-MEL-2 melanoma): 14.3 µM
TGI (SK-MEL-2 melanoma): 61.4 µM
GI50 (T-47D breast): 6.58 µM
TGI (T-47D breast): 67.2 µM
GI50 (SK-MEL-28 melanoma): 4.97 µM
TGI (SK-MEL-28 melanoma): 48.1 µM
GI50 (HL-60(TB) leukemia): 0.735 µM and 4.08 µM
TGI (HL-60(TB) leukemia): 18.8 µM
GI50 (OVCAR-3 ovarian): 8.64 µM
TGI (OVCAR-3 ovarian): 39.9 µM
GI50 (SNB-19 CNS): 11 µM
TGI (SNB-19 CNS): > 93.8 µM
GI50 (NCI-H23 lung): 4.87 µM
TGI (NCI-H23 lung): 38.4 µM

OCCCc1cnco1
TGI (U251 CNS): > 100 µM
TGI (SNB-75 CNS): > 100 µM
TGI (SK-MEL-28 melanoma): > 100 µM
TGI (HL-60(TB) leukemia): > 100 µM
TGI (SR leukemia): > 100 µM
TGI (OVCAR-3 ovarian): > 100 µM
TGI (SNB-19 CNS): > 100 µM
TGI (NCI-H23 lung): > 100 µM

NC(=O)CCc1ccccc1Oc1nccc(-c2c(-c3ccc(F)cc3)ncn2C2CCNCC2)n1
GI50 (U251 CNS): > 25 µM
TGI (U251 CNS): > 25 µM
GI50 (SNB-75 CNS): > 25 µM
TGI (SNB-75 CNS): > 25 µM
GI50 (SK-MEL-2 melanoma): > 25 µM
TGI (SK-MEL-2 melanoma): > 25 µM
GI50 (T-47D breast): > 25 µM
TGI (T-47D breast): > 25 µM
GI50 (SK-MEL-28 melanoma): > 25 µM
TGI (SK-MEL-28 melanoma): > 25 µM
GI50 (HL-60(TB) leukemia): > 25 µM
TGI (HL-60(TB) leukemia): > 25 µM
GI50 (OVCAR-3 ovarian): > 25 µM
TGI (OVCAR-3 ovarian): > 25 µM
GI50 (SNB-19 CNS): > 25 µM
TGI (SNB-19 CNS): > 25 µM

C/C(=N/NC(=S)N1CC2CCC(CC2)C1)c1cnccn1
TGI (U251 CNS): 4.28 µM
TGI (SNB-75 CNS): 7.02 µM
TGI (SK-MEL-2 melanoma): 8.75 µM
TGI (T-47D breast): 13.3 µM
TGI (SK-MEL-28 melanoma): 22.4 µM
TGI (HL-60(TB) leukemia): 3.18 µM
TGI (SNB-19 CNS): 14.2 µM
TGI (NCI-H23 lung): 13.7 µM

c1ccc(-c2cn(-c3ccccc3)c(-c3ccccc3)n2)cc1
GI50 (U251 CNS): 4.08 µM
TGI (U251 CNS): 15.9 µM
GI50 (SNB-75 CNS): 14 µM
TGI (SNB-75 CNS): 27.7 µM
GI50 (SK-MEL-2 melanoma): 13.9 µM
TGI (SK-MEL-2 melanoma): 27.2 µM
GI50 (T-47D breast): 9.3 µM
TGI (T-47D breast): 26.2 µM
GI50 (SK-MEL-28 melanoma): 4.75 µM
TGI (SK-MEL-28 melanoma): 16.5 µM
GI50 (HL-60(TB) leukemia): 3.07 µM
TGI (HL-60(TB) leukemia): 17.9 µM
GI50 (OVCAR-3 ovarian): 6.38 µM
TGI (OVCAR-3 ovarian): 18.6 µM
GI50 (SNB-19 CNS): 11.5 µM
TGI (SNB-19 CNS): 23.9 µM
GI50 (NCI-H23 lung): 16.6 µM
TGI (NCI-H23 lung): 34.9 µM

Fc1ccc(C2SCc3nc4ccccc4n32)cc1F (stereo not given)
TGI (U251 CNS): > 100 µM
TGI (SNB-75 CNS): 56.9 µM
TGI (SK-MEL-2 melanoma): 63.7 µM
TGI (SK-MEL-28 melanoma): 66.7 µM
TGI (HL-60(TB) leukemia): 26.2 µM
TGI (OVCAR-3 ovarian): > 100 µM
TGI (SNB-19 CNS): > 100 µM
TGI (NCI-H23 lung): 81.9 µM

CC(=O)CC(=O)NC=O
TGI (U251 CNS): > 100 µM
TGI (SNB-75 CNS): > 100 µM
TGI (SK-MEL-2 melanoma): > 100 µM
TGI (SK-MEL-28 melanoma): > 100 µM
TGI (HL-60(TB) leukemia): > 100 µM
TGI (SR leukemia): > 100 µM
TGI (OVCAR-3 ovarian): > 100 µM
TGI (SNB-19 CNS): > 100 µM
TGI (NCI-H23 lung): > 100 µM

NC(=S)N/N=C(\CCC(=O)Nc1ccccc1[N+](=O)[O-])CC(=O)c1ccco1
TGI (U251 CNS): > 100 µM
TGI (SNB-75 CNS): > 100 µM
TGI (SK-MEL-2 melanoma): > 100 µM
TGI (SK-MEL-28 melanoma): > 100 µM
TGI (HL-60(TB) leukemia): > 100 µM
TGI (SR leukemia): > 100 µM
TGI (OVCAR-3 ovarian): > 100 µM
TGI (SNB-19 CNS): > 100 µM
TGI (NCI-H23 lung): > 100 µM

O=C(O)CCC1CCc2cccc(OCC(=O)O)c2C1=O (stereo not given)
TGI (U251 CNS): > 100 µM
TGI (SNB-75 CNS): > 100 µM
TGI (SK-MEL-28 melanoma): > 100 µM
TGI (HL-60(TB) leukemia): > 100 µM
TGI (OVCAR-3 ovarian): > 100 µM
TGI (SNB-19 CNS): > 100 µM
TGI (NCI-H23 lung): > 100 µM

O=C(/C=C/c1nnc2n(Cc3ccccc3)c(=O)c3c4c(sc3n12)CCCC4)c1ccccc1
GI50 (U251 CNS): 2.22 µM
TGI (U251 CNS): 7.76 µM
GI50 (SNB-75 CNS): 21.3 µM
TGI (SNB-75 CNS): 91.2 µM
GI50 (SK-MEL-2 melanoma): 3.2 µM
GI50 (HL-60(TB) leukemia): 0.407 µM and 0.332 µM
TGI (HL-60(TB) leukemia): > 100 µM
GI50 (SR leukemia): 0.0522 µM and 0.217 µM
TGI (SR leukemia): 0.658 µM
GI50 (SNB-19 CNS): > 100 µM
TGI (SNB-19 CNS): > 100 µM
GI50 (NCI-H23 lung): > 100 µM
TGI (NCI-H23 lung): > 100 µM

CCOC(=O)[C@@H](C)C[C@H](Cc1ccccc1)NC(=O)c1csc([C@@H](C[C@H](C(C)C)N(C)C(=O)[C@@H](NC(=O)[C@H]2C[C@H](O)CCN2C)C(C)C)OC(C)=O)n1
GI50 (U251 CNS): 0.00614 µM
TGI (U251 CNS): > 16.7 µM
GI50 (SNB-75 CNS): 0.00384 µM
TGI (SNB-75 CNS): > 16.7 µM
GI50 (SK-MEL-2 melanoma): 0.00243 µM
TGI (SK-MEL-2 melanoma): > 16.7 µM
GI50 (HL-60(TB) leukemia): 0.00278 µM
TGI (HL-60(TB) leukemia): 0.012 µM
GI50 (SR leukemia): < 0.00167 µM
TGI (SR leukemia): > 16.7 µM
GI50 (OVCAR-3 ovarian): < 0.00167 µM
GI50 (SNB-19 CNS): 0.00312 µM
TGI (SNB-19 CNS): > 16.7 µM
GI50 (NCI-H23 lung): 0.00763 µM
TGI (NCI-H23 lung): > 16.7 µM

CC(=O)N(CCN1C(=O)c2ccccc2C1=O)CCN1C(=O)c2ccccc2C1=O
TGI (U251 CNS): > 100 µM
TGI (SNB-75 CNS): > 100 µM
TGI (SK-MEL-2 melanoma): > 100 µM
TGI (SK-MEL-28 melanoma): > 100 µM
TGI (HL-60(TB) leukemia): > 100 µM
TGI (SR leukemia): > 100 µM
TGI (OVCAR-3 ovarian): > 100 µM
TGI (SNB-19 CNS): > 100 µM
TGI (NCI-H23 lung): > 100 µM

O=C(N/C=C/C=C/Sc1ccccc1)OCc1ccccc1
TGI (U251 CNS): 34 µM
TGI (SNB-75 CNS): 42.4 µM
TGI (SK-MEL-28 melanoma): 34.3 µM
TGI (HL-60(TB) leukemia): > 100 µM
TGI (SR leukemia): > 100 µM
TGI (OVCAR-3 ovarian): 32 µM
TGI (SNB-19 CNS): > 100 µM
TGI (NCI-H23 lung): 48.9 µM

O=[N+]([O-])c1ccc(/C(Cl)=C/c2ccc(/C=C(\Cl)c3ccc([N+](=O)[O-])cc3[N+](=O)[O-])cc2)c([N+](=O)[O-])c1
TGI (U251 CNS): > 100 µM
TGI (SNB-75 CNS): > 100 µM
TGI (SK-MEL-2 melanoma): > 100 µM
TGI (SK-MEL-28 melanoma): > 100 µM
TGI (HL-60(TB) leukemia): > 100 µM
TGI (SR leukemia): > 100 µM
TGI (NCI-H23 lung): > 100 µM

Source: PubChem BioAssay (NCI)
